The structures appear in SMILES notation. ≈ marks a conversion by molar mass, not a printed value. Where only a bound is given, the exact number is not on record here.

From DBAASP come the findings set out here.

Some test systems named below: Bacillus subtilis; Escherichia coli; Klebsiella pneumoniae; Micrococcus luteus; Proteus mirabilis; Pseudomonas aeruginosa; Salmonella typhimurium; Shigella dysenteriae; Staphylococcus aureus; Bacillus cereus; Enterococcus faecalis; Leuconostoc lactis; Listeria innocua; Pasteurella multocida; Streptococcus uberis; Candida albicans; Escherichia coli MG1655.
Test in all cases: ≥ marks a high value that may be exact or a test limit, other limits are often not marked, values filed in µg/mL are converted to µM
Assay [1] relates to Staphylococcus epidermidis.
The test system of assay [2] is Bacillus subtilis ATCC 6633.
The subject of assay [3] is Candida albicans ATCC 2002.
For assay [4], the system named is Staphylococcus aureus ATCC 2592.
In assay [5] the test system is Pseudomonas aeruginosa PAO1.
Assay [6] relates to Staphylococcus aureus ATCC 25923.
For assay [7], the system named is Candida parapsilosis ATCC 22019.
In assay [8] the test system is Escherichia coli ATCC 25922.
The subject of assay [9] is Staphylococcus epidermidis ATCC 12228.

Regarding `CC[C@H](C)[C@@H]1NC(=O)[C@H](C)NC(=O)[C@@H](NC(=O)[C@H](CCCCN)NC(=O)[C@@H](NC(=O)[C@H](CO)NC(=O)[C@@H]2CCCN2C(=O)[C@H](CC(C)C)NC(=O)[C@@H](NC(=O)[C@H](CCCCN)NC(=O)[C@H](CO)NC(=O)[C@H](C)NC(=O)[C@@H](NC(=O)[C@H](CCCCN)NC(=O)[C@H](Cc2ccccc2)NC(=O)[C@H](CC(C)C)NC(=O)[C@H](C)NC(=O)CNC(=O)[C@H](CC(C)C)NC(=O)[C@@H](N)Cc2ccccc2)C(C)C)C(C)C)C(C)C)CSSC[C@@H](C(=O)O)NC(=O)[C@H](CCCCN)NC(=O)[C@H](CCCCN)NC(=O)[C@H]([C@@H](C)O)NC1=O` [FLGALFKVASKVLPSVKCAITKKC], the MIC is 2.47 µM (≈ 6.3 µg/mL) in the assay with Bacillus subtilis; 4.9 µM (≈ 12.5 µg/mL) against Escherichia coli; 9.8 µM (≈ 25 µg/mL) against Klebsiella pneumoniae; 2.47 µM (≈ 6.3 µg/mL) in the assay on Micrococcus luteus; no less than 78.4 µM against Proteus mirabilis; 78.4 µM (≈ 200 µg/mL) in the assay with Pseudomonas aeruginosa. Besides, the minimum inhibitory concentration (MIC) is no less than 39.2 µM in the assay with Salmonella typhimurium, 19.6 µM (≈ 50 µg/mL) in the assay with Shigella dysenteriae, 1.21 µM (≈ 3.1 µg/mL) in the assay on Staphylococcus aureus and 4.9 µM (≈ 12.5 µg/mL) in [1].

Consider `CC[C@H](C)[C@H](NC(=O)[C@@H](NC(=O)CNC(=O)[C@H](C)NC(=O)[C@@H](NC(=O)[C@H](CCCCN)NC(=O)[C@H](CCCCN)NC(=O)[C@H](CC(C)C)NC(=O)[C@H](Cc1ccccc1)NC(=O)[C@H](CC(=O)O)NC(=O)[C@@H](NC(=O)[C@H](Cc1ccccc1)NC(=O)CN)C(C)C)C(C)C)[C@@H](C)O)C(=O)N[C@@H](C)C(=O)N[C@@H](CC(N)=O)C(=O)N[C@H](C(=O)N[C@H](C(=O)N[C@H](C(N)=O)[C@@H](C)O)C(C)C)C(C)C` [GFVDFLKKVAGTIANVVT], for which the MIC in the assay with Bacillus cereus is no less than 53.2 µM; against Enterococcus faecalis, no less than 53.2 µM; against Escherichia coli, greater than 53.2 µM; with Leuconostoc lactis, no less than 53.2 µM; with Listeria innocua, no less than 53.2 µM; against Micrococcus luteus, no less than 53.2 µM. The minimum inhibitory concentration (MIC) in the assay with Pasteurella multocida is no less than 53.2 µM; in the assay on Staphylococcus aureus, 53.2 µM (≈ 99.9 µg/mL); in assay [1], 26.6 µM (≈ 50 µg/mL); with Streptococcus uberis it was 13.3 µM (≈ 25 µg/mL).

For the compound `CC[C@H](C)[C@H](NC(=O)[C@H](CCCCN)NC(=O)[C@@H]1CCCN1C(=O)[C@H](CC(C)C)NC(=O)[C@H](Cc1ccccc1)NC(=O)[C@H](CC(C)C)NC(=O)[C@@H]1CCCN1C(=O)[C@H](CC(C)C)NC(=O)[C@@H](N)Cc1ccccc1)C(=O)N[C@H](C(=O)N[C@H]1CSSC[C@@H](C(=O)O)NC(=O)[C@H](CCCCN)NC(=O)[C@H](CCCCN)NC(=O)[C@H]([C@@H](C)O)NC(=O)[C@H]([C@@H](C)CC)NC(=O)[C@H](C(C)C)NC1=O)[C@@H](C)CC` [FLPLFLPKIICVITKKC], the MIC turned out to be 4.75 µM (≈ 9.37 µg/mL) in assay [2], 9.49 µM (≈ 18.7 µg/mL) in [3], 17.7 µM (≈ 35 µg/mL) with Shigella dysenteriae and 2.38 µM (≈ 4.7 µg/mL) in assay [4].

As to `CC[C@H](C)[C@H](NC(=O)CNC(=O)[C@H](CO)NC(=O)[C@@H](NC(=O)[C@@H](NC(=O)CNC(=O)[C@H](CCCCN)NC(=O)[C@H](C)NC(=O)[C@H](CC(C)C)NC(=O)[C@H](CO)NC(=O)[C@H](CCC(=O)O)NC(=O)[C@H](CC(C)C)NC(=O)[C@H](CO)NC(=O)[C@H](CCC(=O)O)NC(=O)[C@H](CC(C)C)NC(=O)[C@H](CCCCN)NC(=O)[C@H](CCC(=O)O)NC(=O)[C@H](CCCCN)NC(=O)[C@@H](NC(=O)[C@@H](NC(=O)[C@H](CCC(N)=O)NC(=O)[C@H](CC(C)C)NC(=O)[C@H](CC(C)C)NC(=O)CN)[C@@H](C)O)[C@@H](C)CC)[C@@H](C)CC)C(C)C)C(=O)N[C@@H](CCC(N)=O)C(=O)N[C@@H](C)C(N)=O` [GLLQTIKEKLESLESLAKGIVSGIQA], the MIC is no less than 36.7 µM against Bacillus cereus; no less than 36.7 µM in the assay with Enterococcus faecalis; greater than 36.7 µM in the assay with Escherichia coli; no less than 36.7 µM in the assay on Leuconostoc lactis; no less than 36.7 µM in the assay on Listeria innocua; no less than 36.7 µM against Micrococcus luteus. In addition, the MIC with Pasteurella multocida is no less than 36.7 µM; in the assay with Staphylococcus aureus, greater than 36.7 µM; in assay [1] it was no less than 36.7 µM; in the assay with Streptococcus uberis, 9.17 µM (≈ 25 µg/mL).

Consider `CSCC[C@H](NC(=O)[C@@H](NC(=O)[C@@H](N)CCCCN)C(C)C)C(=O)N[C@@H](CCCN=C(N)N)C(=O)N[C@@H](CCCCN)C(=O)N[C@H](C(=O)N[C@@H](CC(C)C)C(=O)NCC(=O)N[C@@H](Cc1ccc(O)cc1)C(=O)N[C@@H](CC(C)C)C(=O)N[C@@H](CCCN=C(N)N)C(=O)N[C@@H](CC(N)=O)C(=O)N[C@H](C(=O)N[C@@H](Cc1ccc(O)cc1)C(=O)N[C@@H](CCCCN)C(N)=O)C(C)C)C(C)C` [KVMRKVLGYLRNVYK], for which the MIC in the assay with Candida albicans turned out to be 32 µM (≈ 59.7 µg/mL); with Escherichia coli MG1655 it was 2 µM (≈ 3.73 µg/mL); in [5] it was 32 µM (≈ 59.7 µg/mL); in assay [6], 128 µM (≈ 239 µg/mL).

On to `CC[C@H](C)[C@H](NC(=O)[C@@H](NC(=O)[C@H](C)NC(=O)[C@H](C)NC(=O)[C@@H](NC(=O)[C@H](CCCCN)NC(=O)[C@H](CCCCN)NC(=O)[C@@H](NC(=O)[C@@H](NC(=O)[C@H](C)NC(=O)[C@H](Cc1ccccc1)NC(=O)[C@H](CC(C)C)NC(=O)[C@@H](N)CCCCN)C(C)C)[C@@H](C)CC)C(C)C)C(C)C)C(=O)N[C@@H](CCCN=C(N)N)C(=O)N[C@@H](CCCN=C(N)N)C(=O)N[C@@H](CC(C)C)C(N)=O` [KLFAVIKKVAAVIRRL], for which the MIC was no less than 54.8 µM in the assay with Bacillus cereus; greater than 54.8 µM in the assay on Escherichia coli; 6.57 µM (≈ 12 µg/mL) in the assay on Leuconostoc lactis; 27.4 µM (≈ 50 µg/mL) against Listeria innocua; no less than 54.8 µM in the assay on Micrococcus luteus; no less than 54.8 µM in the assay on Pasteurella multocida. Besides, the values for the minimum inhibitory concentration (MIC) (against Staphylococcus aureus; in [1]; in the assay with Streptococcus uberis) were greater than 54.8 µM, no less than 54.8 µM and no less than 54.8 µM, respectively.

In the case of `CC[C@H](C)[C@H](N)C(=O)N[C@H](C(=O)N1CCC[C@H]1C(=O)N[C@@H](Cc1ccccc1)C(=O)N[C@@H](CC(C)C)C(=O)N[C@@H](CC(C)C)C(=O)NCC(=O)N[C@@H](CCSC)C(=O)N[C@H](C(=O)N1CCC[C@H]1C(=O)N[C@@H](CCCCN)C(=O)N[C@@H](CC(C)C)C(=O)N[C@H](C(=O)N[C@H]1CSSC[C@@H](C(=O)O)NC(=O)[C@H](CCCCN)NC(=O)[C@H](CCCCN)NC(=O)[C@H]([C@@H](C)O)NC(=O)[C@H]([C@@H](C)CC)NC(=O)[C@H](CC(C)C)NC1=O)C(C)C)C(C)C)C(C)C` [IVPFLLGMVPKLVCLITKKC], the results for the MIC in assay [7], in assay [8] and in [9] were 16 µM (≈ 35.4 µg/mL), 64 µM (≈ 142 µg/mL) and 4 µM (≈ 8.86 µg/mL), respectively.

For `CC[C@H](C)[C@H](NC(=O)[C@@H](NC(=O)[C@@H]1CCCN1C(=O)[C@@H](NC(=O)[C@@H](NC(=O)[C@H](Cc1cnc[nH]1)NC(=O)[C@@H]1CCCN1C(=O)[C@H](CC(C)C)NC(=O)[C@@H](NC(=O)[C@H](Cc1cnc[nH]1)NC(=O)[C@H](CCCCN)NC(=O)[C@H](C)NC(=O)[C@@H](NC(=O)[C@H](CO)NC(=O)[C@H](CO)NC(=O)[C@H](CC(C)C)NC(=O)[C@H](CO)NC(=O)[C@H](CO)NC(=O)[C@H](CC(C)C)NC(=O)[C@H](CC(C)C)NC(=O)CN)C(C)C)C(C)C)C(C)C)C(C)C)C(C)C)C(=O)N[C@@H](C)C(=O)N[C@@H](CCC(=O)O)C(=O)N[C@@H](Cc1cnc[nH]1)C(=O)N[C@@H](CC(C)C)C(N)=O` [GLLSSLSSVAKHVLPHVVPVIAEHL], the MIC was 19.2 µM (≈ 50 µg/mL) in the assay with Bacillus cereus; 19.2 µM (≈ 50 µg/mL) against Escherichia coli; 4.61 µM (≈ 12 µg/mL) against Leuconostoc lactis; no less than 38.4 µM against Listeria innocua; 0.154 µM (≈ 0.4 µg/mL) in the assay with Micrococcus luteus; 9.6 µM (≈ 25 µg/mL) in the assay with Pasteurella multocida. Moreover, the MIC was 38.4 µM (≈ 100 µg/mL) in the assay on Staphylococcus aureus, 9.6 µM (≈ 25 µg/mL) in assay [1] and no less than 38.4 µM with Streptococcus uberis.

As for `CC(C)C[C@H](NC(=O)[C@@H](NC(=O)[C@H](CCCCN)NC(=O)[C@H](CO)NC(=O)[C@H](C)NC(=O)[C@@H](NC(=O)[C@H](CCCCN)NC(=O)[C@H](Cc1ccccc1)NC(=O)[C@H](CC(C)C)NC(=O)[C@H](C)NC(=O)CN)C(C)C)C(C)C)C(=O)O` [GALFKVASKVL], the MIC with Bacillus subtilis is no less than 177 µM; against Escherichia coli it was 177 µM (≈ 200 µg/mL); with Klebsiella pneumoniae, greater than 177 µM; against Micrococcus luteus, no less than 177 µM; with Proteus mirabilis it was no less than 177 µM; in the assay on Pseudomonas aeruginosa, greater than 177 µM. Moreover, the MIC was no less than 177 µM against Salmonella typhimurium, no less than 177 µM against Shigella dysenteriae, 177 µM (≈ 200 µg/mL) in the assay with Staphylococcus aureus and no less than 177 µM in assay [1].
